Consider seven compounds from patent US10947252B2, “Inhibitors of KEAP1-Nrf2 protein-protein interaction” (Janssen Pharmaceutica NV, priority 2018, dated 2021).

The test system of experiment [1] is Glo-Response ARE-luc2P HEK293 cell line. The experiment is described as follows: ARE luciferase reporter cell-based assay.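 Note: luciferase signal tracks Nrf2 activation of the ARE once compounds disrupt KEAP1-Nrf2 binding, read with One-Glo reagent, DMSO serving as low control.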 The following applies: Homo sapiens, HEK293, 24 h, average of results obtained. (In general: A reporter such as luciferase makes a cellular process visible.)
The target of experiment [2] is Kelch domain of human KEAP1 (321-624 aa) (Homo sapiens (Human), UniProt Q14145). As to the kind of experiment: KEAP1 KELCH ThermoFluor binding assay.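 Note: Ligand-induced melting temperature shift of E. coli-expressed KEAP1 Kelch protein, Kd estimated from concentration-response curves of ΔTm.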 The note with it: KEAP Kelch […], 1,8-ANS, pH 7.0, average of results obtained, read-out: Tf Kd. (In DSF a fluorescence change marks the thermal transition of the protein.)

A value given as a limit tells only on which side of the number the result lay.

Usually EC50 stands for the concentration at which the effect is half-maximal. By Kd is commonly meant the free concentration of one partner at which half of the binding sites on the other are occupied at equilibrium, for simple one-to-one binding.

Sequence of Kelch domain of human KEAP1 (321-624 aa) (Q14145 321-624): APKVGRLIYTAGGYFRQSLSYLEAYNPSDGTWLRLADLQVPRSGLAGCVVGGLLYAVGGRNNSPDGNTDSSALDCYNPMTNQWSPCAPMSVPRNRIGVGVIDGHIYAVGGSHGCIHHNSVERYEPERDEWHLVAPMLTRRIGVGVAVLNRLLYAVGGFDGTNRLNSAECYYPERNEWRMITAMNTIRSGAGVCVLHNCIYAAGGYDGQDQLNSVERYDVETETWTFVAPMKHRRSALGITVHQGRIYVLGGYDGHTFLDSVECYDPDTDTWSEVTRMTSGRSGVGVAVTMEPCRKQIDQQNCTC

The compound `Cc1ccc([C@@H](CC(=O)O)c2ccn3c(C(F)(F)F)nnc3c2C)cc1CN1C[C@@H]2CCC(F)(F)CN2c2ncccc2S1(=O)=O` (single isomer, unassigned) [Example 455, (*R)-3-(3-(((*S)-10,10-Difluoro-5,5-dioxido-7,7a,8,9,10,11-hexahydro-6H-dipyrido[2,1-d:2′,3′-f][1,2,5]thiadiazepin-6-yl)methyl)-4-methylphenyl)-3-(8-methyl-3-(trifluoromethyl)-[1,2,4]triazolo[4,3-a]pyridin-7-yl)propanoic Acid] displayed an EC50 in experiment [1] of 798 nM. The Kd in experiment [2] is less than 1 nM.

In experiment [1], `Cc1ccc([C@@H](CC(=O)O)c2ccn3c(C(F)(F)F)nnc3c2C)cc1CN1C[C@H]2CCC(F)(F)CN2c2ncccc2S1(=O)=O` (single isomer, unassigned) [Example 456, (*R)-3-(3-(((*R)-10,10-Difluoro-5,5-dioxido-7,7a,8,9,10,11-hexahydro-6H-dipyrido[2,1-d:2′,3′-f][1,2,5]thiadiazepin-6-yl)methyl)-4-methylphenyl)-3-(8-methyl-3-(trifluoromethyl)-[1,2,4]triazolo[4,3-a]pyridin-7-yl)propanoic Acid] showed a half-maximal effective concentration (EC50) of 414 nM. The Kd in experiment [2] is less than 1 nM.

In experiment [1], `Cc1ccc([C@H](CC(=O)O)c2ccn3c(C(F)F)nnc3c2C)cc1CN1C[C@@H]2COCCN2c2ncccc2S1(=O)=O` (single isomer, unassigned) [Example 458, (*S)-3-(3-(Difluoromethyl)-8-methyl-[1,2,4]triazolo[4,3-a]pyridin-7-yl)-3-(3-(((*R)-5,5-dioxido-7a,8,10,11-tetrahydro-[1,4]oxazino[3,4-d]pyrido[2,3-f][1,2,5]thiadiazepin-6(7H)-yl)methyl)-4-methylphenyl)propanoic Acid] displayed an EC50 of 276 nM. Also, the Kd in experiment [2] is less than 1 nM.

For `Cc1ccc([C@@H](CC(=O)O)c2ccn3c(C(F)F)nnc3c2C)cc1CN1C[C@@H]2COCCN2c2ncccc2S1(=O)=O` (single isomer, unassigned) [Example 459, (*R)-3-(3-(Difluoromethyl)-8-methyl-[1,2,4]triazolo[4,3-a]pyridin-7-yl)-3-(3-(((*R)-5,5-dioxido-7a,8,10,11-tetrahydro-[1,4]oxazino[3,4-d]pyrido[2,3-f][1,2,5]thiadiazepin-6(7H)-yl)methyl)-4-methylphenyl)propanoic Acid], a half-maximal effect in experiment [1] (EC50) was put at 203 nM. In addition, the Kd in experiment [2] turned out to be 1.19 nM.

Turning to `Cc1ccc([C@H](CC(=O)O)c2ccn3c(C(F)F)nnc3c2C)cc1CN1C[C@H]2COCCN2c2ncccc2S1(=O)=O` (single isomer, unassigned) [Example 461, (*S)-3-(3-(Difluoromethyl)-8-methyl-[1,2,4]triazolo[4,3-a]pyridin-7-yl)-3-(3-(((*S)-5,5-dioxido-7a,8,10,11-tetrahydro-[1,4]oxazino[3,4-d]pyrido[2,3-f][1,2,5]thiadiazepin-6(7H)-yl)methyl)-4-methylphenyl)propanoic Acid], the concentration giving a half-maximal response (EC50) in experiment [1] came to 68.7 nM. Further, the Kd in experiment [2] stood at 1.19 nM.

Consider `Cc1ccc([C@@H](CC(=O)O)c2ccn3c(C(F)F)nnc3c2C)cc1CN1C[C@H]2COCCN2c2ncccc2S1(=O)=O` (single isomer, unassigned) [Example 462, (*R)-3-(3-(Difluoromethyl)-8-methyl-[1,2,4]triazolo[4,3-a]pyridin-7-yl)-3-(3-(((*S)-5,5-dioxido-7a,8,10,11-tetrahydro-[1,4]oxazino[3,4-d]pyrido[2,3-f][1,2,5]thiadiazepin-6(7H)-yl)methyl)-4-methylphenyl)propanoic Acid], for which, in experiment [1], the concentration giving a half-maximal response (EC50) was determined as 2930 nM. Also, the Kd in experiment [2] worked out at 13.7 nM.

In experiment [1], `CC[C@@H]1CN(Cc2cc([C@@H](CC(=O)O)c3ccn4c(C(F)F)nnc4c3C)ccc2C)S(=O)(=O)c2cccnc2O1` (single isomer, unassigned) [Example 465, (*R)-3-(3-(Difluoromethyl)-8-methyl-[1,2,4]triazolo[4,3-a]pyridin-7-yl)-3-(3-(((R)-4-ethyl-1,1-dioxido-3,4-dihydro-2H-pyrido[2,3-b][1,4,5]oxathiazepin-2-yl)methyl)-4-methylphenyl)propanoic Acid] yielded an EC50 of 154 nM. Also, in experiment [2], the Kd was less than 1 nM.
